Experimental data: US11420958B2, “Aryl and heteroaryl substituted indole compounds” (BRISTOL-MYERS SQUIBB COMPANY, priority 2017, dated 2022)

Key:
Assay type in all cases: cell-based
[1] = biological target: human TLR7 (Homo sapiens (Human), UniProt Q9NYK1); assay: TLR7 inhibition reporter assay (HEK-Blue, SEAP); details: HEK-Blue cells overexpressing human TLR7, gardiquimod 7.5 μM stimulation
Experimental: (§1) TLR7/8/9 Inhibition Reporter Assays
(§2) HEK-Blue™-cells (Invivogen) overexpressing human TLR7, TLR8 or TLR9 receptors were used for screening inhibitors of these receptors using an inducible SEAP (secreted embryonic alkaline phosphatase) reporter gene under the control of the IFN-β minimal promoter fused to five NF-κc Band AP-1-binding sites. Briefly, cells are seeded into Greiner 384 well plates (15000 cells per well for TLR7, 20,000 for TLR8 and 25,000 for TLR9) and then treated with test compounds in DMSO to yield a final dose response concentration range of 0.05 nM-50 μM. After a 30 minute compound pre-treatment at room temperature, the cells are then stimulated with a TLR7 ligand (gardiquimod at a final concentration of 7.5 μM), TLR8 ligand (R848 at a final concentration of 15.9 μM) or TLR9 ligand (ODN2006 at final concentration of 5 nM) to activate NF-κB and AP-1 which induce the production of SEAP. After a 22 hour incubation at 37° C., 5% CO2, SEAP levels are determined with the addition of HEK-Bue™ Detection reagent (Invivogen), a cell culture medium that allows for detection of SEAP, according to manufacturer's specifications. The percent inhibition is determined as the % reduction in the HEK-Blue signal present in wells treated with agonist plus DMSO alone compared to wells treated with a known inhibitor.

[2] = biological target: human TLR8 (Homo sapiens (Human), UniProt Q9NR97); assay: TLR8 inhibition reporter assay (HEK-Blue, SEAP); details: HEK-Blue cells overexpressing human TLR8, R848 15.9 μM stimulation
Experimental: as §1, §2

[3] = biological target: human TLR9 (Homo sapiens (Human), UniProt Q9NR96); assay: TLR9 inhibition reporter assay (HEK-Blue, SEAP); details: HEK-Blue cells overexpressing human TLR9, ODN2006 5 nM stimulation
Experimental: as §1, §2

Sequence of human TLR7 (Q9NYK1 27-1049): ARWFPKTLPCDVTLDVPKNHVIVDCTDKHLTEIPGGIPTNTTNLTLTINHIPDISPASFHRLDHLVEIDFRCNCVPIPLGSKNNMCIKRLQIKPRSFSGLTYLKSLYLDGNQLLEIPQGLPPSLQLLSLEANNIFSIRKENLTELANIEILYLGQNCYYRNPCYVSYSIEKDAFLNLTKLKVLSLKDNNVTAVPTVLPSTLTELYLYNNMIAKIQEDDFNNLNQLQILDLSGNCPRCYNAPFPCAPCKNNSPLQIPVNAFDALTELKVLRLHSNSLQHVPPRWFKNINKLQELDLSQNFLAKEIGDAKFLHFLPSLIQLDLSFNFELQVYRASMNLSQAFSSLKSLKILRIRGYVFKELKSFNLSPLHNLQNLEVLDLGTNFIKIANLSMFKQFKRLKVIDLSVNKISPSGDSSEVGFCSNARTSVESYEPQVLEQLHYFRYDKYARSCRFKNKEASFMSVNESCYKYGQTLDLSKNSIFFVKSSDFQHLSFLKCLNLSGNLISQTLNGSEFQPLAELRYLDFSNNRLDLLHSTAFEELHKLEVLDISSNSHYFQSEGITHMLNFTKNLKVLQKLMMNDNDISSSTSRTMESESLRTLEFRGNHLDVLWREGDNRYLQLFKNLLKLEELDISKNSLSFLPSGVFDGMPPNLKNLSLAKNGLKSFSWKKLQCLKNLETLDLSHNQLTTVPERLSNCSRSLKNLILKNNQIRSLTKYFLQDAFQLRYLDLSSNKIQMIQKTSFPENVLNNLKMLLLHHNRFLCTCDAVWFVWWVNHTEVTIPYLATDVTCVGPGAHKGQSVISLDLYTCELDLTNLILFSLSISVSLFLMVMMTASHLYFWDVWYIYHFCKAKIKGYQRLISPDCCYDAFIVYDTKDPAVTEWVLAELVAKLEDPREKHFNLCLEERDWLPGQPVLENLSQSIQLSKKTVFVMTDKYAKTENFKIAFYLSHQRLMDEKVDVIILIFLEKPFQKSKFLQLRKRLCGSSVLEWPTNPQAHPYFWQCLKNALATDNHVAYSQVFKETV
Sequence of human TLR8 (Q9NR97 27-1041): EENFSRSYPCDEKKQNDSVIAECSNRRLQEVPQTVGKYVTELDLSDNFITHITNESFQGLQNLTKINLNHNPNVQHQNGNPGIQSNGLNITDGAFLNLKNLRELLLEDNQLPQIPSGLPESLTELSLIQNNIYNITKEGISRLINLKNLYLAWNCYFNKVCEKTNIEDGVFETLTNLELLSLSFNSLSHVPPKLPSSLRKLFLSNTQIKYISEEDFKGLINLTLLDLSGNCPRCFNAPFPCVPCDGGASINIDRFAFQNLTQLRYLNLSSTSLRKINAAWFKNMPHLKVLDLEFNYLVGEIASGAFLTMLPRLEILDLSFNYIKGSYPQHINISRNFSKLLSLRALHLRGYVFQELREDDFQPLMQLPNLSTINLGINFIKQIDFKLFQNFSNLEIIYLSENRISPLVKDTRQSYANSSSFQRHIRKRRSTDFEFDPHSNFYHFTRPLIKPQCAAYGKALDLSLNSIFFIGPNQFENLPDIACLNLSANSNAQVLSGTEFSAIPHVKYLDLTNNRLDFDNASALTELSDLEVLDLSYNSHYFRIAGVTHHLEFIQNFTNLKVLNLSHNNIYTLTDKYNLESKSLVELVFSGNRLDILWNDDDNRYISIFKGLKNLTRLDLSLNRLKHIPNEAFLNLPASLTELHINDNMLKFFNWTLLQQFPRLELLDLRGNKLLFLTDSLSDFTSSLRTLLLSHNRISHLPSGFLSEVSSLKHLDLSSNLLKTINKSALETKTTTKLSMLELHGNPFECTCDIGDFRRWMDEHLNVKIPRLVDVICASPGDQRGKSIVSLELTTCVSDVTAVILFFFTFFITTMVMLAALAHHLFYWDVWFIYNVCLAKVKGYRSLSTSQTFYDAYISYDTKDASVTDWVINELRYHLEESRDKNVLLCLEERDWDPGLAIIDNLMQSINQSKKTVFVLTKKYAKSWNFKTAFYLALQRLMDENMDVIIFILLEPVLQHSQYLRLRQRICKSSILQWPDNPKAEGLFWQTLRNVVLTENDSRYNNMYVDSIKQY
Sequence of human TLR9 (Q9NR96 26-1032): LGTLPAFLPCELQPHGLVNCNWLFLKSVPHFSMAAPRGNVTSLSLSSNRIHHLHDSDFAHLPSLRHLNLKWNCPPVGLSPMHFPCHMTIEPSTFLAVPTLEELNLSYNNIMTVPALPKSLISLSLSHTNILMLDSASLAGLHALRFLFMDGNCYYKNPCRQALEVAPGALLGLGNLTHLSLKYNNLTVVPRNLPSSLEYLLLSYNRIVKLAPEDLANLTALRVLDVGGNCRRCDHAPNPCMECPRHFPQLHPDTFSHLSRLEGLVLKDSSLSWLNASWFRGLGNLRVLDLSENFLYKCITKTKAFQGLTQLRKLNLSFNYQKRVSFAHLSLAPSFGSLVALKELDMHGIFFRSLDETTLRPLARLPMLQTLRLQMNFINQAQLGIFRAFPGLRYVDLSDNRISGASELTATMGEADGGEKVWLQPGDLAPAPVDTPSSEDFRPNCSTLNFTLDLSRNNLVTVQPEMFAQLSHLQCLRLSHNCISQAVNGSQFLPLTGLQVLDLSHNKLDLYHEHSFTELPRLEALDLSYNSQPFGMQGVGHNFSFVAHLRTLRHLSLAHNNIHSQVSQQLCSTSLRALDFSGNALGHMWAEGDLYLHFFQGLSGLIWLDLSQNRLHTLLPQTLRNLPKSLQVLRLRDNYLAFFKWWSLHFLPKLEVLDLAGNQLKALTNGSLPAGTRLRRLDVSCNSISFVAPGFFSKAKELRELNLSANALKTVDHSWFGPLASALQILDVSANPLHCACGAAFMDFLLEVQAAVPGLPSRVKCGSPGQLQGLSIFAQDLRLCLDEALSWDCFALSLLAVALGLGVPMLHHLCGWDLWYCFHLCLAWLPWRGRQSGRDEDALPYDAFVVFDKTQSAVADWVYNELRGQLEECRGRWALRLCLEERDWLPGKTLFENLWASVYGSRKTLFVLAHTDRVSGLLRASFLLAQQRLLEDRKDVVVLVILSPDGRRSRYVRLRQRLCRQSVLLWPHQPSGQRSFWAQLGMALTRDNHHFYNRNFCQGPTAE

SMILES: COc1ccc(-c2[nH]c3ccc(-c4nnc(C5CCN(C(=O)OC(C)(C)C)CC5)o4)cc3c2C(C)C)cc1OC [Example 19, tert-butyl 4-(5-(2-(3,4-dimethoxyphenyl)-3-isopropyl-1H-indol-5-yl)-1,3,4-oxadiazol-2-yl)piperidine-1-carboxylate]
- IC50 [1]: 2510 nM
- IC50 [2]: 484 nM
- IC50 [3]: > 50000 nM

SMILES: Cc1cc(-c2[nH]c3ccc(-c4cn5c(n4)CNCC5)cc3c2C(C)C)cc(C)n1 [Example 354, 2-(2-(2,6-dimethylpyridin-4-yl)-3-isopropyl-1H-indol-5-yl)-5,6,7,8-tetrahydroimidazo[1,2-a]pyrazine]
- IC50 [1]: 48 nM
- IC50 [2]: 2.8 nM
- IC50 [3]: 2100 nM

SMILES: Cc1cc(-c2[nH]c3ccc(-c4ccnc(C5CCNCC5)c4)cc3c2C(C)C)cc(C)n1 [Example 344, 2-(2,6-dimethylpyridin-4-yl)-3-isopropyl-5-(2-(piperidin-4-yl)pyridin-4-yl)-1H-indole]
- IC50 [1]: 5 nM
- IC50 [2]: 7.9 nM
- IC50 [3]: 181 nM

SMILES: COc1ccc(-c2[nH]c3ccc(-c4ccnc(C(=O)NC5CCC(N)CC5)c4)cc3c2C(C)C)cc1OC (stereo not shown) [Example 12, N-(4-aminocyclohexyl)-4-(2-(3,4-dimethoxyphenyl)-3-isopropyl-1H-indol-5-yl)picolinamide]
- IC50 [1]: 69 nM
- IC50 [2]: 37 nM
- IC50 [3]: 2160 nM

SMILES: CC(C)c1c(-c2ccnc3[nH]ncc23)[nH]c2ccc(-c3nnc(C4CCN(C(=O)CN(C)C)CC4)o3)cc12 [Example 86, 2-(dimethylamino)-1-(4-(5-(3-isopropyl-2-(1H-pyrazolo[3,4-b]pyridin-4-yl)-1H-indol-5-yl)-1,3,4-oxadiazol-2-yl)piperidin-1-yl)ethan-1-one]
- IC50 [1]: 85 nM
- IC50 [2]: 6.1 nM
- IC50 [3]: 324 nM

SMILES: Cc1cc(-c2[nH]c3ccc(-c4nc(C(=O)NCC5CCNC5)co4)cc3c2C(C)C)ccn1 (stereo not shown) [Example 197, 2-(3-isopropyl-2-(2-methylpyridin-4-yl)-1H-indol-5-yl)-N-(pyrrolidin-3-ylmethyl)oxazole-4-carboxamide]
- IC50 [1]: 440 nM
- IC50 [2]: 61 nM
- IC50 [3]: 13000 nM

SMILES: Cc1cc(-c2[nH]c3ccc(-c4cc5c(s4)CN(CC(=O)N(C)C)CC5)cc3c2C(C)C)cc(C)n1 [Example 342, 2-(2-(2-(2,6-dimethylpyridin-4-yl)-3-isopropyl-1H-indol-5-yl)-4,7-dihydrothieno[2,3-c]pyridin-6(5H)-yl)-N,N-dimethylacetamide]
- IC50 [1]: 19 nM
- IC50 [2]: 8.9 nM
- IC50 [3]: 1330 nM

SMILES: CCc1c(-c2ccnc(C)c2)[nH]c2ccc(-c3noc(C4CCCNC4)n3)cc12 (stereo not shown) [Example 457, 3-(3-ethyl-2-(2-methylpyridin-4-yl)-1H-indol-5-yl)-5-(piperidin-3-yl)-1,2,4-oxadiazole]
- IC50 [1]: 228 nM
- IC50 [2]: 11 nM
- IC50 [3]: 686 nM

SMILES: CC(C)c1c(-c2ccnc3[nH]ncc23)[nH]c2ccc(-c3nnc(C4CCN(CC(=O)N(C)C)CC4)o3)cc12 [Example 87, 2-(4-(5-(3-isopropyl-2-(1H-pyrazolo[3,4-b]pyridin-4-yl)-1H-indol-5-yl)-1,3,4-oxadiazol-2-yl)piperidin-1-yl)-N,N-dimethylacetamide]
- IC50 [1]: 549 nM
- IC50 [2]: 9.8 nM
- IC50 [3]: 5660 nM

SMILES: COc1ccc(-c2[nH]c3ccc(-c4nnc(C(=O)N5CCN(c6cnccn6)CC5)o4)cc3c2C(C)C)cc1OC [Example 97, (5-(2-(3,4-dimethoxyphenyl)-3-isopropyl-1H-indol-5-yl)-1,3,4-oxadiazol-2-yl)(4-(pyrazin-2-yl)piperazin-1-yl)methanone]
- IC50 [1]: 936 nM
- IC50 [2]: 239 nM
- IC50 [3]: > 50000 nM

SMILES: CC(C)c1c(-c2ccnc3[nH]ncc23)[nH]c2ccc(-c3nc4n(n3)CCN(C3CCN(C(C)C)CC3)C4)cc12 [Example 211, 2-(3-isopropyl-2-(1H-pyrazolo[3,4-b]pyridin-4-yl)-1H-indol-5-yl)-7-(1-isopropylpiperidin-4-yl)-5,6,7,8-tetrahydro-[1,2,4]triazolo[1,5-a]pyrazine]
- IC50 [1]: 216 nM
- IC50 [2]: 9.9 nM
- IC50 [3]: 1830 nM

SMILES: CC(C)c1c(-c2ccnc3[nH]ncc23)[nH]c2ccc(-c3nc4n(n3)CCNC4)cc12 [Example 206, 2-(3-isopropyl-2-(1H-pyrazolo[3,4-b]pyridin-4-yl)-1H-indol-5-yl)-5,6,7,8-tetrahydro-[1,2,4]triazolo[1,5-a]pyrazine]
- IC50 [1]: 4450 nM
- IC50 [2]: 11 nM
- IC50 [3]: > 50000 nM

SMILES: Cc1cc(-c2[nH]c3ccc(-c4nnc(Cc5c[nH]c6ccccc56)o4)cc3c2C(C)C)ccn1 [Example 73, 2-((1H-indol-3-yl)methyl)-5-(3-isopropyl-2-(2-methylpyridin-4-yl)-1H-indol-5-yl)-1,3,4-oxadiazole]
- IC50 [1]: 2290 nM
- IC50 [2]: 1290 nM
- IC50 [3]: > 50000 nM

SMILES: COc1ccc(-c2[nH]c3ccc(-c4cccc(N5CCN(CC(C)C)CC5)c4)cc3c2C(C)C)cc1OC [Example 371, 2-(3,4-dimethoxyphenyl)-5-(3-(4-isobutylpiperazin-1-yl)phenyl)-3-isopropyl-1H-indole]
- IC50 [1]: 894 nM
- IC50 [2]: 176 nM
- IC50 [3]: 10200 nM

SMILES: Cc1cc(-c2[nH]c3ccc(-c4nnc(C5CCCN(C(C)C)C5)o4)cc3c2CC(F)F)cc(C)n1 (stereo not shown) [Example 314, 2-(3-(2,2-difluoroethyl)-2-(2,6-dimethylpyridin-4-yl)-1H-indol-5-yl)-5-(1-isopropylpiperidin-3-yl)-1,3,4-oxadiazole]
- IC50 [1]: 43 nM
- IC50 [2]: 11 nM
- IC50 [3]: 106 nM

SMILES: CCc1c(-c2ccc(OC)c(OC)c2)[nH]c2ccc(-c3noc(C4CC(=O)N(C)C4)n3)cc12 (stereo not shown) [Example 441, 4-(3-(2-(3,4-dimethoxyphenyl)-3-ethyl-1H-indol-5-yl)-1,2,4-oxadiazol-5-yl)-1-methylpyrrolidin-2-one]
- IC50 [1]: 3290 nM
- IC50 [2]: 356 nM
- IC50 [3]: > 50000 nM

SMILES: Cc1cc(-c2[nH]c3ccc(-c4ccc(C(N)=O)nc4)cc3c2C(C)C)cc(C)n1 [Example 317, 5-(2-(2,6-dimethylpyridin-4-yl)-3-isopropyl-1H-indol-5-yl)picolinamide]
- IC50 [1]: 7.7 nM
- IC50 [2]: 26 nM
- IC50 [3]: > 50000 nM

SMILES: COc1ccc(-c2[nH]c3ccc(-c4nnc(CNCCS(=O)(=O)O)o4)cc3c2C(C)C)cc1OC [Example 113, 2-(((5-(2-(3,4-dimethoxyphenyl)-3-isopropyl-1H-indol-5-yl)-1,3,4-oxadiazol-2-yl)methyl)amino)ethane-1-sulfonic acid]
- IC50 [1]: 219 nM
- IC50 [2]: 222 nM
- IC50 [3]: > 50000 nM

SMILES: CNCc1nnc(-c2ccc3[nH]c(-c4ccnc5n[nH]cc45)c(C(C)C)c3c2)o1 [Example 132, 1-(5-(3-isopropyl-2-(2H-pyrazolo[3,4-b]pyridin-4-yl)-1H-indol-5-yl)-1,3,4-oxadiazol-2-yl)-N-methylmethanamine]
- IC50 [1]: 2680 nM
- IC50 [2]: 44 nM
- IC50 [3]: 47400 nM

SMILES: Cc1cc(-c2[nH]c3ccc(-c4ccc(N5CCCC5)nc4)cc3c2C(C)C)cc(C)n1 [Example 336, 2-(2,6-dimethylpyridin-4-yl)-3-isopropyl-5-(6-(pyrrolidin-1-yl)pyridin-3-yl)-1H-indole]
- IC50 [1]: 41 nM
- IC50 [2]: 15 nM
- IC50 [3]: 2340 nM

SMILES: COc1ccc(-c2[nH]c3ccc(-c4ccnc(N5CCN(C6CCC6)CC5)c4)cc3c2C(C)C)cc1OC [Example 427, 5-(2-(4-cyclobutylpiperazin-1-yl)pyridin-4-yl)-2-(3,4-dimethoxyphenyl)-3-isopropyl-1H-indole]
- IC50 [1]: 960 nM
- IC50 [2]: 56 nM
- IC50 [3]: 2530 nM

SMILES: COc1ccc(-c2[nH]c3ccc(-c4ccc(-c5cncc6ccccc56)cc4)cc3c2C(C)C)cc1OC [Example 407, 4-(4-(2-(3,4-dimethoxyphenyl)-3-isopropyl-1H-indol-5-yl)phenyl)isoquinoline]
- IC50 [2]: > 50000 nM
- IC50 [3]: 290 nM

SMILES: Cc1cc(-c2[nH]c3ccc(-c4ccc(N5CCN(C(C)C)CC5)nc4)cc3c2C(C)C)ccn1 [Example 302, 3-isopropyl-5-(6-(4-isopropylpiperazin-1-yl)pyridin-3-yl)-2-(2-methylpyridin-4-yl)-1H-indole]
- IC50 [2]: 28 nM
- IC50 [3]: 2320 nM

SMILES: COc1ccc(-c2[nH]c3ccc(-c4ccc(N5CCN(CC(C)C)CC5)nc4)cc3c2C(C)C)cc1OC [Example 391, 2-(3,4-dimethoxyphenyl)-5-(6-(4-isobutylpiperazin-1-yl)pyridin-3-yl)-3-isopropyl-1H-indole]
- IC50 [2]: 73 nM
- IC50 [3]: 4360 nM

SMILES: COc1ccc(-c2[nH]c3ccc(-c4cccc(C(=O)N5CCN(C(=O)C6CCCO6)CC5)c4)cc3c2CC(F)(F)F)cc1OC (stereo not shown) [Example 33, (4-(3-(2-(3,4-dimethoxyphenyl)-3-(2,2,2-trifluoroethyl)-1H-indol-5-yl)benzoyl)piperazin-1-yl)(tetrahydrofuran-2-yl)methanone]
- IC50 [1]: 1330 nM
- IC50 [2]: 53 nM

SMILES: Cc1cc(-c2[nH]c3ccc(-c4ccc(NC(=O)C5CC(=O)N(C)C5)nc4)cc3c2C(C)C)ccn1 (stereo not shown) [Example 332, N-(5-(3-isopropyl-2-(2-methylpyridin-4-yl)-1H-indol-5-yl)pyridin-2-yl)-1-methyl-5-oxopyrrolidine-3-carboxamide]
- IC50 [1]: 14 nM
- IC50 [2]: 1.9 nM
